The source made the active and inactive calls.
Experiments:
Format in all cases: cell-based
[1] = biological target: Early growth response protein 1 (Homo sapiens) (UniProt P18146); assay: Inhibition of EGR-1 DNA binding activity in TNF-alpha-stimulated human HaCaT cells assessed as suppression of DNA-protein complex formation treated for 1 hr by EMSA; details: dose 20-40 µM
[2] = biological target: Early growth response protein 1 (Homo sapiens) (UniProt P18146); assay: Inhibition of EGR-1 in TNF-alpha-stimulated human HaCaT cells assessed as decrease in TSLP level at 20 to 40 uM pretreated for 30 mins followed by TNF-alpha stimulation measured after 6 hrs by RT-PCR analysis; details: dose 20-40 µM, time 390.0 min
[3] = biological target: Early growth response protein 1 (Homo sapiens) (UniProt P18146); assay: Inhibition of EGR-1 in TNF-alpha-stimulated human HaCaT cells assessed as decrease in IL-1beta level at 20 to 40 uM pretreated for 30 mins followed by TNF-alpha stimulation measured after 6 hrs by RT-PCR analysis; details: dose 20-40 µM, time 390.0 min
[4] = biological target: Early growth response protein 1 (Homo sapiens) (UniProt P18146); assay: Inhibition of EGR-1 in TNF-alpha-stimulated human HaCaT cells assessed as decrease in IL-6 level at 20 to 40 uM pretreated for 30 mins followed by TNF-alpha stimulation measured after 6 hrs by RT-PCR analysis; details: dose 20-40 µM, time 390.0 min
[5] = biological target: Early growth response protein 1 (Homo sapiens) (UniProt P18146); assay: Inhibition of EGR-1 in TNF-alpha-stimulated human HaCaT cells assessed as decrease in IL-31 level at 20 to 40 uM pretreated for 30 mins followed by TNF-alpha stimulation measured after 6 hrs by RT-PCR analysis; details: dose 20-40 µM, time 390.0 min

Measured: inhibition

Chain of Early growth response protein 1 (Homo sapiens) (P18146 whole entry, looked up): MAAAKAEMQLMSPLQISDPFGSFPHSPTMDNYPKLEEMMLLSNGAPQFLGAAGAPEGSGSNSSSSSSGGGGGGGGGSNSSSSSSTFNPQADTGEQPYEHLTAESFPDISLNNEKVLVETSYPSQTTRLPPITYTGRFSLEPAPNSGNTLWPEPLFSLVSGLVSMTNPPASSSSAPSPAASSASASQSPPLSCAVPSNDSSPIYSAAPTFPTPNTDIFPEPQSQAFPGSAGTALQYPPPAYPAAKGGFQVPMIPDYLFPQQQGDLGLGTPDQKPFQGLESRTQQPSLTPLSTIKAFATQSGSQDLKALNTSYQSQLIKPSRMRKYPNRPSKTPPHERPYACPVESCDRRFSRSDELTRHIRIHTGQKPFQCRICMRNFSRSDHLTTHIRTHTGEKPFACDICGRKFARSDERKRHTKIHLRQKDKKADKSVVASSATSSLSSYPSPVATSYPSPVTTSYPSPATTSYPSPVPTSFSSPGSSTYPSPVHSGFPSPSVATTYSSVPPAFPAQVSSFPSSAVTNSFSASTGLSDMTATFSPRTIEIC

COc1ccc(C2CC(c3c(O)ccc4ccccc34)=NN2)cc1 (stereo not given)
active: [1] Dose-dependent-effect | [2] | [3] | [4] | [5]
